Test results reported in paper PMC5158193, “Molecular Characterization and Functional Analysis of a Novel Calcium-Dependent Protein Kinase 4 from Eimeria tenella” (PLoS ONE, 2016).

These molecules were tested against T1, rEtCDPK4 (Eimeria tenella, UniProt A0A165BP42) (assay: PepTag C1-peptide non-radioactive kinase assay, A570). Details: 1 mM ATP, 1.3 mM CaCl2, 10 mM MgCl2, phosphatidylserine, 47.5 μM PepTag C1-peptide, pH 7.4, 30 °C.
T1 construct: gene CDPK4; fragment, ORF bp 118-1777 (cDNA 303-1962); N-terminal 6xHis (pCold I), E. coli BL21; kinase domain and all six EF hands
T1 sequence (A0A165BP42 40-592): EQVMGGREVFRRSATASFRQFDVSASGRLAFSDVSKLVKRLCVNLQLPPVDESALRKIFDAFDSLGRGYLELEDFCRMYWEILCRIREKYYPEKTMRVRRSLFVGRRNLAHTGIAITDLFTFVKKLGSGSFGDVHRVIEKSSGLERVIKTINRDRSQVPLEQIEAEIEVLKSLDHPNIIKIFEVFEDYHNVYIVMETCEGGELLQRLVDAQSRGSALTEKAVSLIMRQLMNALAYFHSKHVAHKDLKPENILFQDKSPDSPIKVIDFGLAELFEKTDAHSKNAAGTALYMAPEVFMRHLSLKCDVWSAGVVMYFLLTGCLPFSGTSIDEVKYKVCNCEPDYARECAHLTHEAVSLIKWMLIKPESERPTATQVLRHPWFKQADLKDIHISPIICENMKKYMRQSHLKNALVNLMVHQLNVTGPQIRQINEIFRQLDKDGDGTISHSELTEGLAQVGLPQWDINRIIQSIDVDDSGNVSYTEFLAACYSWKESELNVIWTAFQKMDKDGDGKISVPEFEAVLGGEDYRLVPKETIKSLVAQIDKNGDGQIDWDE
Type: biochemical

Question: With `CC1CNCCN1S(=O)(=O)c1cccc2cnccc12` (centres unmarked) [H-7] as the molecule, how does the “kinase activity at 100 μM inhibitor” value read?
Answer: The value was “W-7, H-7, H-89, staurosporine, Ro-31-8220 and myristoylated peptide significantly decreased enzyme activity”.

Question: Which “kinase activity at 100 μM inhibitor” value does the source give for `O=S(=O)(NCCNC/C=C/c1ccc(Br)cc1)c1cccc2cnccc12` [H-89] here?
Answer: Its value is “W-7, H-7, H-89, staurosporine, Ro-31-8220 and myristoylated peptide significantly decreased enzyme activity”.

Question: How did the “kinase activity at 100 μM inhibitor” value turn out when `Cn1cc(C2=C(c3cn(CCCSC(=N)N)c4ccccc34)C(=O)NC2=O)c2ccccc21` [Ro-31-8220] was run?
Answer: The value was “W-7, H-7, H-89, staurosporine, Ro-31-8220 and myristoylated peptide significantly decreased enzyme activity”.

Question: For `NCCCCCCNS(=O)(=O)c1cccc2c(Cl)cccc12` [W-7], which “kinase activity at 100 μM inhibitor” value is on record?
Answer: The value was “W-7, H-7, H-89, staurosporine, Ro-31-8220 and myristoylated peptide significantly decreased enzyme activity”.

Question: For `CN[C@@H]1C[C@H]2O[C@@](C)([C@@H]1OC)n1c3ccccc3c3c4c(c5c6ccccc6n2c5c31)C(=O)NC4` [staurosporine], which “kinase activity at 100 μM inhibitor” value is on record?
Answer: The value was “W-7, H-7, H-89, staurosporine, Ro-31-8220 and myristoylated peptide significantly decreased enzyme activity”.
